Values quoted from earlier work in patent US4477441A, “Renin inhibitors containing a C-terminal disulfide cycle” (Merck & Co., Inc., priority 1983, dated 1984).

System: hog renin
Details: nephrectomized rats after injection of hog renin; Gross et al. 1971

Substance: Pepstatin
- blood pressure in vivo: reduce blood pressure in vivo
